# Results published in US11660280B2, “Treatment of drug resistant gliomas” (OKLAHOMA MEDICAL RESEARCH FOUNDATION, priority 2017, dated 2023).
# Columns and labels:
# [1] = tested on: LBP (lipopolysaccharide binding protein); test: LBP ELISA in tumor tissue and serum of F98 glioma-bearing rats; format: in vivo, rat
# Source text: The inventor also discovered a potential biomarker, LBP (lipopolysaccharide binding protein), that is elevated in tumors of rat F98 glioma-bearing rats (assessed by ELISA), and in GBM human tissue samples (assessed by immunohistochemistry). […] The inventor used an ELISA kit for LBP to assess this biomarker as an efficacy marker in both G55-tumor-bearing mice in both tumor tissue and blood serum, either untreated or treated with TMZ, OKN-007 or TMZ +OKN-007.
# Mice and Treatments. Animal studies were conducted in accordance to the OMRF IACUC (Institutional Animal Care and Use Committee) policies, which follow NIH guidelines. For the F98 rat glioma cell implantation model, F98 cells (10^5 in 10-μ1 volume) were intracerebrally implanted with a stereotaxic device (2 mm lateral and 2 mm anterior to the bregma, and at a 3 mm depth) in a total of 15 Fischer 344 rats (male 200-250 gm). The animals were divided into two groups once tumors reached 10-20 mm^3 in volume (as determined by MRI): OKN-007 treated (n=8) and untreated (UT) (n=7) groups. […] Once tumors reached 10-15 mm^3 (determined via MRI), mice were either treated daily with OKN-007 in the drinking water (150 mg/kg; 0.20% w/v for a 20 g mouse), or every 3 days with TMZ (30 mg/kg). […] Water bottles were weighed, and the amount of OKN-007 consumed per mouse was determined. […]
# F98 tumors = test: RT-PCR of RNA isolated from F98 untreated and OKN-007-treated tumors; format: in vivo, rat; details: OKN-007-treated vs untreated F98 tumors
# Experimental: (§1) Mice and Treatments. Animal studies were conducted in accordance to the OMRF IACUC (Institutional Animal Care and Use Committee) policies, which follow NIH guidelines. For the F98 rat glioma cell implantation model, F98 cells (10^5 in 10-μ1 volume) were intracerebrally implanted with a stereotaxic device (2 mm lateral and 2 mm anterior to the bregma, and at a 3 mm depth) in a total of 15 Fischer 344 rats (male 200-250 gm). The animals were divided into two groups once tumors reached 10-20 mm^3 in volume (as determined by MRI): OKN-007 treated (n=8) and untreated (UT) (n=7) groups. Rats were treated until tumors reached 200-250 mm^3 in volume or for a total of 4-6 weeks. For the G55 GBM cell implantation model, two-month-old male nude mice (Hsd:Athymic Nude-Foxnlnu mice; Harlan Inc., Indianapolis, IN) were implanted intracerebrally with human G55 xenograft cells (1×10^6) per mL suspended in 4 μL in cell culture media of 1% agarose solution. Once tumors reached 10-15 mm^3 (determined via MRI), mice were either treated daily with OKN-007 in the drinking water (150 mg/kg; 0.20% w/v for a 20 g mouse), or every 3 days with TMZ (30 mg/kg). OKN-007 was dissolved in water and made fresh every 2 days. Water bottles were weighed, and the amount of OKN-007 consumed per mouse was determined. […] The average intake of OKN-007 was approximately 140-150 mg/kg/day/mouse. TMZ was dissolved in 5% DMSO and 5% solutol-15 in sterile saline and administered via gavage. Mice were treated until the tumors reached 100-150 mm^3 or for a total of 4-6 weeks. All groups were stratified to ensure that tumor sizes were similar before initiation of treatment.
# RNA isolation and preparation. For the rat F98 glioma study, all rats were euthanized after the last MRI examination. The brain of each animal was removed, and snap frozen in liquid nitrogen, before storage in a −80° C. freezer. Total RNA from all tumor tissues from all treatment groups was purified with an RNeasy Mini Kit (Qiagen), and quantified by spectrophotometry (Nanodrop). cDNA was synthesized using SuperScript IV Reverse Transcriptase Kit (Invitrogen).
# [2] = tested on: LBP (lipopolysaccharide binding protein); test: LBP ELISA in tumor tissue and blood serum of G55 glioma-bearing mice; format: in vivo, mouse
# Experimental: Lipopolysaccharide binding protein (LBP) ELISA assay. The LBP ELISA kit (Antibodies-Online.com; ABIN370808) is specific for mouse LBP levels in serum, plasma and tissue samples. This is a colorimetric assay that was read on a micro plate reader for measurement of absorbance at 450/620 nm. LBP concentrations were calculated from a standard curve and multiplied by appropriate dilution factors.
# TGFβ1 = TGFβ1 protein levels (IHC, ELISA) in F98 gliomas; format: in vivo, rat
# Experimental: as §1, with “TMZ was dissolved in 5% DMSO and 5% solutol-15 in sterile saline and administered via gavage. Mice were treated until the tumors reached 100-150 mm^3 or for a total of 4-6 weeks. All groups were stratified to ensure that tumor sizes were similar before initiation of treatment.” left out
# Solubility in water = format: physicochemical; details: free acid
# [3] = in vivo; cited from earlier work
compound,measurement,setting,value
"CC(C)(C)[N+]([O-])=Cc1ccc(S(=O)(=O)O)cc1S(=O)(=O)O [OKN-007, 2,4-disulfonyl phenyl tert-butyl nitrone]",LBP levels in tumor tissues compared to untreated gliomas,"[1]; F98 glioma bearing rats, p<0.0001",significant decrease in LBP levels
same,serum levels of LBP compared to untreated tumor-bearing rats,"[1]; F98 glioma-bearing rats, p<0.001",significantly lower
same,RT-PCR fold change in gene expression ADAMTS1,F98 tumors; Down-regulated,3.57 fold
same,RT-PCR fold change in gene expression CD44,F98 tumors; Down-regulated,3.03 fold
same,RT-PCR fold change in gene expression CDH3,F98 tumors; Down-regulated,3.70 fold
same,RT-PCR fold change in gene expression COL1A1,F98 tumors; Down-regulated,2.27 fold
same,RT-PCR fold change in gene expression COL2A1,F98 tumors; Down-regulated,2.33 fold
same,RT-PCR fold change in gene expression COL3A1,F98 tumors; Down-regulated,3.13 fold
same,RT-PCR fold change in gene expression COL4A1,F98 tumors; Down-regulated,2.94 fold
same,RT-PCR fold change in gene expression COL4A2,F98 tumors; Down-regulated,2.63 fold
same,RT-PCR fold change in gene expression COL5A1,F98 tumors; Down-regulated,3.33 fold
same,RT-PCR fold change in gene expression COL6A1,F98 tumors; Down-regulated,2.94 fold
same,RT-PCR fold change in gene expression COL8A1,F98 tumors; Down-regulated,2.33 fold
same,RT-PCR fold change in gene expression CTGF,F98 tumors; Down-regulated,2.63 fold
same,RT-PCR fold change in gene expression ECM1,F98 tumors; Down-regulated,2.86 fold
same,RT-PCR fold change in gene expression EMILIN1,F98 tumors; Down-regulated,2.27 fold
same,RT-PCR fold change in gene expression FN1,F98 tumors; Down-regulated,2.63 fold
same,RT-PCR fold change in gene expression ITAD,F98 tumors; Down-regulated,2.38 fold
same,RT-PCR fold change in gene expression ITGA2,F98 tumors; Down-regulated,3.7 fold
same,RT-PCR fold change in gene expression ITGB3,F98 tumors; Down-regulated,2.13 fold
same,RT-PCR fold change in gene expression ITGB4,F98 tumors; Down-regulated,3.70 fold
same,RT-PCR fold change in gene expression LAMC1,F98 tumors; Down-regulated,2.33 fold
same,RT-PCR fold change in gene expression MMP1 A,F98 tumors; Down-regulated,4.17 fold
same,RT-PCR fold change in gene expression MMP2,F98 tumors; Down-regulated,2.86 fold
same,RT-PCR fold change in gene expression MMP3,F98 tumors; Down-regulated,3.85 fold
same,RT-PCR fold change in gene expression MMP7,F98 tumors; Down-regulated,2.86 fold
same,RT-PCR fold change in gene expression MMP8,F98 tumors; Down-regulated,3.85 fold
same,RT-PCR fold change in gene expression MMP9,F98 tumors; Down-regulated,7.14 fold
same,RT-PCR fold change in gene expression MMP12,F98 tumors; Down-regulated,16.67 fold
same,RT-PCR fold change in gene expression MMP13,F98 tumors; Down-regulated,50.00 fold
same,RT-PCR fold change in gene expression MMP14,F98 tumors; Down-regulated,2.86 fold
same,RT-PCR fold change in gene expression POSTN,F98 tumors; Down-regulated,33.33 fold
same,RT-PCR fold change in gene expression RGDC,F98 tumors; Down-regulated,3.45 fold
same,RT-PCR fold change in gene expression SELE,F98 tumors; Down-regulated,2.86 fold
same,RT-PCR fold change in gene expression SELL,F98 tumors; Down-regulated,2.13 fold
same,RT-PCR fold change in gene expression SELP,F98 tumors; Down-regulated,2.13 fold
same,RT-PCR fold change in gene expression SPP1,F98 tumors; Down-regulated,8.33 fold
same,RT-PCR fold change in gene expression TGFBI,F98 tumors; Down-regulated,2.22 fold
same,RT-PCR fold change in gene expression THBS2,F98 tumors; Down-regulated,3.7 fold
same,RT-PCR fold change in gene expression TIMP1,F98 tumors; Down-regulated,3.45 fold
same,RT-PCR fold change in gene expression CDH4,F98 tumors; Up-regulated,4.06 fold
same,RT-PCR fold change in gene expression CNTN1,F98 tumors; Up-regulated,15.03 fold
same,RT-PCR fold change in gene expression HAPLN1,F98 tumors; Up-regulated,3.1 fold
same,RT-PCR fold change in gene expression MMP16,F98 tumors; Up-regulated,4.72 fold
same,RT-PCR fold change in gene expression NCAM2,F98 tumors; Up-regulated,11.63 fold
same,RT-PCR fold change in gene expression SGCE,F98 tumors; Up-regulated,8.06 fold
same,RT-PCR fold change in gene expression SPOC1,F98 tumors; Up-regulated,11.08 fold
same,RT-PCR fold change in gene expression SYT1,F98 tumors; Up-regulated,19.03 fold
same,RT-PCR fold change in gene expression VTN,F98 tumors; Up-regulated,3.03 fold
same,LBP levels in tumor tissues compared to UT mice,[2],significantly less
same,TGFβ1 protein levels by immunohistochemistry compared to UT tumors,TGFβ1; F98 gliomas,substantially reduced
same,TGFβ1 protein expression by ELISA compared to UT tumors,"TGFβ1; F98 tumor tissue lysates, p<0.001",significantly decreased
same,solubility in water,Solubility in water,greater than 1 gram/ml
same,crossing of the blood brain barrier,[3],can readily cross the BBB
